What all share (format): physicochemical
Series [1] in a line: Solubility studies, shake flask method with HPLC quantification. To be noted: 37° C., 200 rpm, about 15 minutes; for solubility: thermodynamic from solid, read-out: Solubility (Conc.). The protocol:
• Shake flask method was used to determine the solubility of compound in various bio-relevant media of different pH and quantification is done using HPLC method. II. Experimental:
Following bio-relevant media and water were selected to study the solubility behaviour. • i. FaSSIF (Fasted state simulated intestinal fluid) of pH 6.5 • ii. FeSSIF (Fed state simulated intestinal fluid) of pH 5.0 • iii. Water.
Procedure: Test substance (1 mg) was taken in a test tube and medium [FaSSIF (pH 6.5) or FeSSIF (pH 5.0) or water] was added in the increment of 1 ml with shaking. After completion of addition of 10 ml of media, test tubes containing sample solution were put on a mechanical shaker set at 37° C. and 200 rpm for shaking up to about 15 minutes. After shaking, the content of each flask, it was filtered through […] filter. The filtered solution was analysed using HPLC for quantification. A sample solution of 1 mg in 10 ml of DMSO was used as reference standard for quantifying dissolved test substance in each media. The solubility in each media is expressed as μg/ml (Table-10).

Series [2] can be described thus: Dissolution studies in suspension form. To be noted: suspension: 10 mg active, Kollidon VA 64 40 mg, SLS 20 mg, purified water; batches 1A, 2A, 3A. On the procedure:
Suspension of compound of formula (II) and its salts with same composition was prepared using conventional homogenization technique. The % drug release was determined by comparing with 10 mg equivalent suspension (after sonication).

Series [3] can be described thus: Hygroscopicity study, moisture content by Karl Fischer method. The settings on record: for moisture content, initial value: before exposure to humidity; for moisture content increase: 25° C., 48 hrs. The protocol: Hygroscopicity study was performed under the following conditions: The material was exposed to relative humidity (for example 60%, 80%, 90%) at 25° C. condition. The material was thinly spread in dried and pre-weighed Petri plate. The plate was exposed to the relative humidity conditions at 25° C. The Petri plate was withdrawn at regular intervals and weighed. Withdrawn samples were tested for description and moisture content by Karl Fischer method.

Series [4] in a line: Stability studies of salts under storage, degradation products by HPLC. An excerpt:
The salts of compound of formula II were stored under conditions as shown in Table 11 and a total amount of degradation products (related substances) and single maximum impurity formed during storage was estimated according to following protocol:
Apparatus: A High Performance Liquid Chromatograph equipped with quaternary gradient pumps, variable wavelength UV detector attached with data recorder and Integrator software or equivalent.
Column: Phenomenex Prodigy, 250 mm×4.6 mm, 5.0 or equivalent
Mobile phase: A: Buffer B: Acetonitrile (for sodium salt), acetonitrile:methanol (6:4) for potassium salt
Buffer: 0.1% Formic acid in water
Detection wavelength: UV 265 nm
Column temperature: 40° C.
10 mg of compound was weighed and transferred it into a 20 mL volumetric flask. Dimethylsulfoxide was added and it was sonicated to dissolve. The diluent was added to make up the solution to the mark of the flask.
The equal volumes of blank (diluent) and test solution were separately injected into the liquid chromatograph. The responses were recorded eliminating the peaks due to blank and the chromatographic purity by area was calculated by normalization method.
The salts of the compound of formula II were stored under conditions as shown in below table and a total amount of degradation products (related substances) as well as single maximum impurity formed during storage was estimated by HPLC. The material was packed in inner clear polythene bag under nitrogen lined with black polythene bag, covered with triple laminated aluminium bag placed in HDPE drum and subjected to the conditions mentioned in the table 11.

The mark [5] stands for this setting: storage condition 1: 25 ± 2° C., 60 ± 5% RH, 0 months.
[6] abbreviates: storage condition 1: 25 ± 2° C., 60 ± 5% RH, 1 month.
The mark [7] stands for this setting: storage condition 1: 25 ± 2° C., 60 ± 5% RH, 2 months.
Setting [8] is: storage condition 1: 25 ± 2° C., 60 ± 5% RH, 3 months.
[9] abbreviates: storage condition 1: 25 ± 2° C., 60 ± 5% RH, 6 months.
Where [10] appears, read: storage condition 1: 25 ± 2° C., 60 ± 5% RH, 9 months.
The mark [11] stands for this setting: storage condition 2: 30 ± 2° C., 65 ± 5% RH, 0 months.
[12] abbreviates: storage condition 2: 30 ± 2° C., 65 ± 5% RH, 6 months.
The mark [13] stands for this setting: storage condition 3: 40 ± 2° C., 75 ± 5% RH, 0 months.
[14] abbreviates: storage condition 3: 40 ± 2° C., 75 ± 5% RH, 1 month.
The mark [15] stands for this setting: storage condition 3: 40 ± 2° C., 75 ± 5% RH, 2 months.
Where [16] appears, read: storage condition 3: 40 ± 2° C., 75 ± 5% RH, 3 months.
Setting [17] is: storage condition 3: 40 ± 2° C., 75 ± 5% RH, 6 months.
[18] abbreviates: storage condition 2: 30 ± 2° C., 65 ± 5% RH, 1 month.
Where [19] appears, read: storage condition 2: 30 ± 2° C., 65 ± 5% RH, 2 months.
The mark [20] stands for this setting: storage condition 2: 30 ± 2° C., 65 ± 5% RH, 3 months.

The term solubility denotes the concentration that dissolves in the medium under given conditions.

≈ marks a conversion by molar mass, not a printed value. Where two headings read alike, the source gives them in different places.

As to `Cn1c(=O)c2c(CC(=O)Nc3nc(-c4ccc(F)c(C(F)(F)F)c4F)cs3)csc2n(C)c1=O` [Compound (II), N-{4-[2,4-difluoro-3-(trifluoromethyl)phenyl]-1,3-thiazol-2-yl}-2-(1,3-dimethyl-2,4-dioxo-1,2,3,4-tetrahydrothieno[2,3-d]pyrimidin-5-yl)acetamide], the solubility was 0.16 µg/mL (≈ 0.31 µM) in series [1] (FaSSIF (fasted state simulated intestinal fluid), FaSSIF (pH 6.5)); 0.06 µg/mL (≈ 0.116 µM) in series [1] (FeSSIF (fed state simulated intestinal fluid), FeSSIF (pH 5.0)); 0.1 µg/mL (≈ 0.194 µM) in series [1] (Water). In addition, the “% drug release after 15 minutes” value in series [2] was determined as 0.40%.
In the case of `Cn1c(=O)c2c(CC(=O)Nc3nc(-c4ccc(F)c(C(F)(F)F)c4F)cs3)csc2n(C)c1=O.[K]` [Potassium salt of N-{4-[2,4-difluoro-3-(trifluoromethyl)phenyl]-1,3-thiazol-2-yl}-2-(1,3-dimethyl-2,4-dioxo-1,2,3,4-tetrahydrothieno[2,3-d]pyrimidin-5-yl)acetamide in crystalline form], the “moisture content after gradual increase” value in series [3] (48 hrs at 25° C./60% RH) is “about 3.5%”; in series [3] (48 hrs at 25° C./80% RH), “about 6.6%”; in series [3] (48 hrs at 25° C./90% RH) it was “about 16.0%”. The “moisture content, initial value” in series [3] is “about 0.80%”.
On to `Cn1c(=O)c2c(CC(=O)Nc3nc(-c4ccc(F)c(C(F)(F)F)c4F)cs3)csc2n(C)c1=O.[K]` [Potassium salt of compound (II), potassium salt of N-{4-[2,4-difluoro-3-(trifluoromethyl)phenyl]-1,3-thiazol-2-yl}-2-(1,3-dimethyl-2,4-dioxo-1,2,3,4-tetrahydrothieno[2,3-d]pyrimidin-5-yl)acetamide], for which the “Solubility (Conc.)” value is 5.91 µg/mL in series [1] (FaSSIF (pH 6.5)), 5.53 µg/mL in series [1] (FeSSIF (pH 5.0)) and 0.49 µg/mL in series [1] (Water). Moreover, the Related substances in series [4] (setting [5]) is reported as 0.44%; in series [4] (setting [6]) it was 0.45%; in series [4] (setting [7]), 0.31%; in series [4] (setting [8]), 0.43%; in series [4] (setting [9]), 0.35%; in series [4] (setting [10]), 0.35%. Besides, the Related substances in series [4] (setting [11]) is 0.44%; in series [4] (setting [12]) it was 0.51%; in series [4] (setting [13]), 0.44%; in series [4] (setting [14]) it was 0.44%; in series [4] (setting [15]) it was 0.32%; in series [4] (setting [16]) it was 0.46%. In series [4] (setting [17]), the Related substances was found to be 0.52%. Besides, the single max. impurity in series [4] (setting [5]) turned out to be 0.26%; in series [4] (setting [6]), 0.27%; in series [4] (setting [7]), 0.19%; in series [4] (setting [8]), 0.26%; in series [4] (setting [9]), 0.21%; in series [4] (setting [10]), 0.21%. Further, the single max. impurity in series [4] (setting [11]) came to 0.26%; in series [4] (setting [12]) it was 0.31%; in series [4] (setting [13]), 0.26%; in series [4] (setting [14]), 0.27%; in series [4] (setting [15]), 0.20%; in series [4] (setting [16]), 0.28%. The single max. impurity in series [4] (setting [17]) was 0.32%. For the same compound, in series [2], the “% drug release after 15 minutes” value amounted to 6.3%. Besides, the “moisture content after gradual increase” value was determined as 3.5% in series [3] (48 hrs at 25° C./60% RH, listed as potassium salt of compound of formula (II)); 6.6% in series [3] (48 hrs at 25° C./80% RH, listed as potassium salt of compound of formula (II)); 16.0% in series [3] (48 hrs at 25° C./90% RH, listed as potassium salt of compound of formula (II)). Further, the “moisture content, initial value” in series [3] (listed as potassium salt of compound of formula (II)) is listed as 0.80%. In addition, the values for the moisture content increase in series [3] (relative humidity of 60%), in series [3] (relative humidity of 80%) and in series [3] (relative humidity of 90%) were not above 2.7%, not above 5.8% and not above 15.2%, respectively.
In the case of `Cn1c(=O)c2c(CC(=O)[N-]c3nc(-c4ccc(F)c(C(F)(F)F)c4F)cs3)csc2n(C)c1=O.[Na+]` [Sodium salt of compound (II)], the entries for the “Solubility (Conc.)” value in series [1] (FaSSIF (pH 6.5)), in series [1] (FeSSIF (pH 5.0)) and in series [1] (Water) were 1.07 µg/mL, 0.24 µg/mL and 0.13 µg/mL, respectively. The Related substances in series [4] (setting [5]) is recorded as 0.22%; in series [4] (setting [6]) it was 0.28%; in series [4] (setting [7]) it was 0.36%; in series [4] (setting [8]), 0.38%; in series [4] (setting [9]), 0.51%; in series [4] (setting [10]), 0.75%. Further, the Related substances is given as 0.22% in series [4] (setting [11]); 0.30% in series [4] (setting [18]); 0.40% in series [4] (setting [19]); 0.47% in series [4] (setting [20]); 0.71% in series [4] (setting [12]); 0.22% in series [4] (setting [13]). Further, the Related substances in series [4] (setting [14]) came to 0.54%; in series [4] (setting [15]), 0.70%; in series [4] (setting [16]), 0.77%; in series [4] (setting [17]), 1.0%. Also, the single max. impurity is 0.05% in series [4] (setting [5]); 0.06% in series [4] (setting [6]); 0.10% in series [4] (setting [7]); 0.11% in series [4] (setting [8]); 0.23% in series [4] (setting [9]); 0.39% in series [4] (setting [10]). Moreover, the single max. impurity is on record as 0.05% in series [4] (setting [11]); 0.05% in series [4] (setting [18]); 0.14% in series [4] (setting [19]); 0.18% in series [4] (setting [20]); 0.35% in series [4] (setting [12]); 0.05% in series [4] (setting [13]). In addition, the single max. impurity in series [4] (setting [14]) is given as 0.22%; in series [4] (setting [15]), 0.36%; in series [4] (setting [16]), 0.39%; in series [4] (setting [17]), 0.58%. For the same compound, the “% drug release after 15 minutes” value in series [2] turned out to be 1.2%.
